Measured values: article PMC10726367 (Journal of Medicinal Chemistry, 2023)
“Also recorded” adds a separate entry of the source.

Tests used:
SERCA2 = target: T1, SERCA2 (Homo sapiens, UniProt P16615); assay: NADH-coupled ATPase assay on microsomal membrane vesicles from HEK-293T cells (HEK-293 ER); type: biochemical; settings: for SERCA2 ATPase activity in HEK-293 ER microsomes (in words): 10 μM, vs 0.1 v/v% DMSO; for SERCA2a HEK ER effect class: 10 μM (1 μM for 12b per Figure S7), microsomal membrane vesicles
T1 construct: endogenous in cells; host or cells: HEK-293T cells, microsomal membrane vesicles (HEK-293 ER)
Source text: Cyclopropanol derivatives have a variety of biological activities including enzyme inhibition and antibacterial and anticancer properties.[47]−[50] However, there have been no published reports on cyclopropanol-containing molecules specifically acting as modulators of RyRs and/or activators of SERCA. To investigate more directly whether the compounds influence the SERCA2 activity, we performed nicotinamide adenine dinucleotide (NADH) fluorescence-coupled ATPase assay according to Radnai et al.[51] In this assay, the change in NADH coenzyme fluorescence reflects the level of the consumption of ATP, which we took as indicator of SERCA2 activity.[51],[52] ATP hydrolysis by SERCA2 is required to pump calcium ions into the SR. We assume that a higher rate of ATP hydrolysis reflects an increase in SERCA2 ATPase activity that leads to a greater pumping of calcium ions into the SR.
We observed the rate of NADH oxidation, which is coupled to ATP hydrolysis, by measuring changes in NADH intrinsic fluorescence over time after ATP injection into microsomal membranes enriched in SR vesicles isolated from mouse heart ventricles (mouse SR) and HEK-293T cells (HEK-293 ER). The presence of SERCA2 in mouse SR and HEK-293 ER of isolated microsomal vesicles was confirmed by Western blotting (Figures S5 and S6; for details see Experimental Section). The NADH fluorescence decrease was recorded on a multiwell plate reader TECAN Spark 20M (λex = 380 nm, λem = 470 nm). […] Consistent with our previous experiment on HL-1 cells, we observed a strong decrease in NADH fluorescence reflecting an increase in SERCA2a activity in SR microsomes derived from mouse heart ventricles (n = 3–5) in solutions containing the tested compounds compared to the 0.1 v/v% DMSO sample (Figure 6). […] Similar results were obtained in cardiac SR vesicles from the mouse heart. […] This difference may indicate isoform-specific effects of our compound in HEK-293 cells expressing mostly SERCA2b[53] versus mouse SR vesicles containing mostly SERCA2a.[54] In both experiments, we used CDN1163 as a positive control.
Isolation of microsomal membrane vesicles from HEK-293T cells (HEK-293 ER) was performed according to Stewart et al.[61] HEK-293T cells were harvested with Trypsin/EDTA, washed twice with ice-cold PBS containing protease inhibitor cocktail (cOmplete, Roche, Mannheim, Germany), and centrifuged 800 × g for 5 min. The pellet was resuspended in ice-cold lysis buffer (1 mM EDTA, 10 mM HEPES, cOmplete, pH 7.4) and incubated on ice for 20 min. After the cells were homogenized with a tight-fitting Dounce homogenizer (10–20 strokes), an equal volume of restoration buffer (500 mM sucrose, 10 mM HEPES, cOmplete, pH 7.2) was added and the cells were homogenized again (10–20 strokes). The homogenate was centrifuged at 10,000 × g for 20 min at 4 °C. The supernatant was collected and centrifuged again for another 2 h (10^5 × g at 4 °C). Then, the pellet was carefully resuspended in resuspension buffer (250 mM sucrose, 10 mM HEPES, cOmplete, pH 7.2) on ice by pipetting the solution up and down until it was fully dissolved. The obtained solution was diluted to a protein concentration of 15–20 μg/μL with the resuspension buffer; the aliquots were snap frozen in liquid nitrogen and stored at −80 °C until usage.
To determine whether new compounds could increase the SERCA2 activity, HEK-293 microsomes (40–150 μg of total protein) or mouse ventricular microsomes (1–20 μg of total protein) were diluted in 100 μL of the assay buffer used for measurement of SERCA activity (described below) and incubated at room temperature for 5 min prior to the experiments. The measurements of SERCA2 activity were made at 28 °C by using a NADH-coupled ATPase assay as described in Radnai et al. with slight modifications.[51] Briefly, the assay buffer contained 60 mM MOPS, 120 mM KCl, 6 mM MgCl2, 1 mM EGTA, 5 mM NaN3, 0.5 mM phosphoenolpyruvate, and 1.5 mM CaCl2, pH 7.0. […]

[1] = CytoTox-Glo Cytotoxicity Assay; type: cell-based; settings: mouse; HL-1 cells, 100 μM solutions, 24 h incubation
Method: Cell viability was assessed using the CytoTox-Glo Cytotoxicity Assay according to the manufacturing procedure (Promega GmbH). Briefly, HL-1 cells were cultivated for 24 h in black-walled, clear-bottom 96-well microplates (Corning) covered with fibronectin in DMEM, containing different concentrations of the tested compound (10,000 cells/well). Luminescence of a luminogenic peptide substrate was measured before and after the addition of the lysis reagent (digitonin). The viable cell contribution was determined by a subtractive method. 0.1% DMSO-treated cells were taken as a control.

T1 sequence (P16615 whole entry): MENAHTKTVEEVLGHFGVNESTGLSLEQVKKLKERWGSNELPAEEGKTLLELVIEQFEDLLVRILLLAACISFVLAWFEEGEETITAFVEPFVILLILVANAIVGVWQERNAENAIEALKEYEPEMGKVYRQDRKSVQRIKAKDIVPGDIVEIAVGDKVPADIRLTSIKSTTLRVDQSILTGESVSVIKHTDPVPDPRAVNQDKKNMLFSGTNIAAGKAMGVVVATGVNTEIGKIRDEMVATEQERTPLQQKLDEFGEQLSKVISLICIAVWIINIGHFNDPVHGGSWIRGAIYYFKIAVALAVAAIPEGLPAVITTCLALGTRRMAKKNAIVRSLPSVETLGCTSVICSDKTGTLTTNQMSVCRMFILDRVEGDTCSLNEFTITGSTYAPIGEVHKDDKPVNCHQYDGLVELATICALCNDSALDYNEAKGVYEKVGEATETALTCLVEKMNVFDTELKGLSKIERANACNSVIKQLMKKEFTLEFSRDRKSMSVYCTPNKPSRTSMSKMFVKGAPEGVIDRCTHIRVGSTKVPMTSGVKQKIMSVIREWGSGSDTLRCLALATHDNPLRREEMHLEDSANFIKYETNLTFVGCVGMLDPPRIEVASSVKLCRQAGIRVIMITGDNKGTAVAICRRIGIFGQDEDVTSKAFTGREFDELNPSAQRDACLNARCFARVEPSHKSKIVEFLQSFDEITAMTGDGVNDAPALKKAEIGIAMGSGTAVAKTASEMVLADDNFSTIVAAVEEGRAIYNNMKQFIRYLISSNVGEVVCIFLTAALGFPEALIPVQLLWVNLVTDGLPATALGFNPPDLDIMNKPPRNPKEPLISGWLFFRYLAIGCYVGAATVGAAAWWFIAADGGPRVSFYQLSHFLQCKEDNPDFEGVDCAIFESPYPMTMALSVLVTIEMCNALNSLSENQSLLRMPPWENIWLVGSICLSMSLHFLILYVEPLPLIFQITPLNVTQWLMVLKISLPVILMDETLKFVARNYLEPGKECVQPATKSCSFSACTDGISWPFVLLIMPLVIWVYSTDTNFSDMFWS

Structure (SMILES) | SERCA2 ATPase activity in HEK-293 ER microsomes (in words) (SERCA2) | viability at 24 h, 100 μM [1] | SERCA2a HEK ER effect class (SERCA2) | EC50 (SERCA2; ATPase activity, value, interval, read-out: SERCA2a HEK ER (EC50))
COc1ccc2c(c1)CN(CCCCNCCCCC1(O)CC1)CCS2 [11a, 1-(4-((4-(7-Methoxy-2,3-dihydrobenzo[1,4-f]thiazepin-4(5H)-yl)butyl)amino)butyl)cyclopropan-1-ol] | did not evoke a significant increase in ATPase activity; also recorded: could not detect SERCA2 activation | 84% |  | 
COc1ccc(OCCCNCCCCC2(O)CC2)cc1 [11b, 1-(4-((3-(4-Methoxyphenoxy)propyl)amino)butyl)cyclopropan-1-ol] | did not evoke a significant increase in ATPase activity | 100% |  | 
COc1ccc(SCCCNCCCCC2(O)CC2)cc1 [11c, 1-(4-((3-((4-Methoxyphenyl)thio)propyl)amino)butyl)cyclopropan-1-ol] | significant activation of SERCA2 ATPase | 73% | + | 
COc1ccc2c(c1)CN(CCCCC1(O)CC1)CCS2 [11d, 1-(4-(7-Methoxy-2,3-dihydrobenzo[1,4-f]thiazepin-4(5H)-yl)butyl)cyclopropan-1-ol] | significant activation of SERCA2 ATPase; also recorded: slight | 95% | + | 
COc1ccc2c(c1)CN(CCCCN(CCCCC1(O)CC1)CCCCC1(O)CC1)CCS2 [12a, 1,1′-(((4-(7-Methoxy-2,3-dihydrobenzo[1,4-f]thiazepin-4(5H)-yl)butyl)azanediyl)bis(butane-4,1-diyl))bis(cyclopropan-1-ol)] |  | 80% | ++ | 16 nM
COc1ccc(SCCCN(CCCCC2(O)CC2)CCCCC2(O)CC2)cc1 [12c, 1,1′-(((3-((4-Methoxyphenyl)thio)propyl)azanediyl)bis(butane-4,1-diyl))bis(cyclopropan-1-ol)] |  | 90% | + | 
COc1ccc2c(c1)CN(Cc1ccc(C(=O)O)cc1)CCS2 [ARM210, reference compound] | significant activation of SERCA2 ATPase | 90% | + | 
